Assay results from ChEMBL document CHEMBL1799932, “Antimalarial pyrido[1,2-a]benzimidazoles” (J Med Chem, 2011).

Columns and labels:
Plasmodium berghei [1] = assay: Antimalarial activity against GFP-transfected Plasmodium berghei strain ANKA infected in NMRI mouse assessed as increase in median survival time at 50 mg/kg/day, ip administered for 4 days measured up to 30 days post infection (reference value: 5 to 7 days); assay type: functional; details: route intraperitoneal
Plasmodium berghei [2] = assay: Antimalarial activity against GFP-transfected Plasmodium berghei strain ANKA infected in NMRI mouse assessed as increase in mean survival time at 50 mg/kg, po administered as single dose (reference value: 5 days )
Rattus norvegicus [3] = assay: Apparent volume of distribution in fasted Sprague-Dawley rat assessed as 1-(2-Diethylaminoethylamino)-3-[4-(trifluoromethyl)phenyl]-pyrido[1,2-a]benzimidazole-4-carbonitrile at 5 mg/kg, iv after 48 hrs by LC-MS analysis; assay type: ADME, organism-based; parameters: dose 5 mg/kg, route intravenous; details: in vivo
Plasmodium berghei [4] = assay: Antimalarial activity against GFP-transfected Plasmodium berghei strain ANKA infected in NMRI mouse assessed as reduction in parasitemia at 100 mg/kg/day, po administered for 4 consecutive days measured 24 hrs after last treatment by FACS analysis relative to control; assay type: functional; parameters: scale not given: the % may be the effect or the level left
Rattus norvegicus [5] = assay: AUC (0 to tlast) in fasted Sprague-Dawley rat assessed as 1-(2-Diethylaminoethylamino)-3-[4-(trifluoromethyl)phenyl]-pyrido[1,2-a]benzimidazole-4-carbonitrile at 20 mg/kg, po after 48 hrs by LC-MS analysis; assay type: ADME, organism-based, Plasma; parameters: time < 48 hr, dose 20 mg/kg, route oral; details: in vivo
[6] = Metabolic stability in human liver microsomes assessed as degradation half life after 60 mins by LC-MS analysis; assay type: ADME, Microsome
Rattus norvegicus [7] = assay: Cmax in fasted Sprague-Dawley rat assessed as 1-(2-Diethylaminoethylamino)-3-[4-(trifluoromethyl)phenyl]-pyrido[1,2-a]benzimidazole-4-carbonitrile at 20 mg/kg, po after 48 hrs by LC-MS analysis; assay type: ADME, organism-based; parameters: dose 20 mg/kg, route oral; details: in vivo
Rattus norvegicus [8] = assay: Cmax in fasted Sprague-Dawley rat assessed as 1-(2-Ethylaminoethylamino)-3-[4-(trifluoromethyl)phenyl]- pyrido[1,2-a]benzimidazole-4-carbonitrile level at 5 mg/kg, iv after 48 hrs by LC-MS analysis; assay type: ADME, organism-based; parameters: dose 5 mg/kg, route intravenous; details: in vivo
Rattus norvegicus [9] = assay: AUC (0 to tlast) in fasted Sprague-Dawley rat assessed as 1-(2-Ethylaminoethylamino)-3-[4-(trifluoromethyl)phenyl]- pyrido[1,2-a]benzimidazole-4-carbonitrile level at 20 mg/kg, po after 48 hrs by LC-MS analysis; assay type: ADME, organism-based, Plasma; parameters: time < 48 hr, dose 20 mg/kg, route oral; details: in vivo
Plasmodium berghei [10] = assay: Antimalarial activity against GFP-transfected Plasmodium berghei strain ANKA infected in NMRI mouse assessed as reduction in parasitemia at 50 mg/kg, po administered as single dose measured on day 3 by FACS analysis; assay type: functional; parameters: scale not given: the % may be the effect or the level left

In the case of CCN(CC)CCNc1cc(-c2ccc(C(F)(F)F)cc2)c(C#N)c2nc3ccccc3n12.Cl.Cl, the MSD (Plasmodium berghei [1]) is reported as 10 days, the MSD (Plasmodium berghei [2]) is reported as 8 days and the Vz (Rattus norvegicus [3]) is reported as 18.9 L/kg. For the same molecule, the Activity (Plasmodium berghei [4]) was 96.2%, the AUClast (Rattus norvegicus [5]) was 290 µM·min and the half-life [6] was 13.7 min. The Cmax (Rattus norvegicus [7]) was 380 nM, the Cmax (Rattus norvegicus [8]) was 540 nM and the AUClast (Rattus norvegicus [9]) was 1032 µM·min. For the same molecule, the Activity (Plasmodium berghei [10]) was 29.76%.
